Patent US11208412B2 (DAEGU-GYEONGBUK MEDICAL INNOVATION FOUNDATION, priority 2017, dated 2021)

What was measured:
Experiment in all cases: Kinase selectivity, DiscoverX scanMAX Kinase assay panel (% control)
Assay type in all cases: binding
[1] = target: T1, kinases of the scanMAX Kinase assay panel (Homo sapiens, UniProt P36507); settings: MEK2; 1 uM
T1 construct: purchased DiscoverX Co. (contract measurement) scanMAX Kinase assay panel
Summary of the method: (§1)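 Binding-panel profiling at one concentration, 1 uM in DMSO; values are % of DMSO control after subtracting the positive-control floor. Less than 35% means activity on that kinase.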

[2] = target: T2, kinases of the scanMAX Kinase assay panel (Homo sapiens, UniProt Q96J92); settings: kinase WNK4; 1 uM in DMSO
T2 construct: purchased DiscoverX Co. (contract measurement) scanMAX Kinase assay panel
T2 sequence (Q96J92 whole entry): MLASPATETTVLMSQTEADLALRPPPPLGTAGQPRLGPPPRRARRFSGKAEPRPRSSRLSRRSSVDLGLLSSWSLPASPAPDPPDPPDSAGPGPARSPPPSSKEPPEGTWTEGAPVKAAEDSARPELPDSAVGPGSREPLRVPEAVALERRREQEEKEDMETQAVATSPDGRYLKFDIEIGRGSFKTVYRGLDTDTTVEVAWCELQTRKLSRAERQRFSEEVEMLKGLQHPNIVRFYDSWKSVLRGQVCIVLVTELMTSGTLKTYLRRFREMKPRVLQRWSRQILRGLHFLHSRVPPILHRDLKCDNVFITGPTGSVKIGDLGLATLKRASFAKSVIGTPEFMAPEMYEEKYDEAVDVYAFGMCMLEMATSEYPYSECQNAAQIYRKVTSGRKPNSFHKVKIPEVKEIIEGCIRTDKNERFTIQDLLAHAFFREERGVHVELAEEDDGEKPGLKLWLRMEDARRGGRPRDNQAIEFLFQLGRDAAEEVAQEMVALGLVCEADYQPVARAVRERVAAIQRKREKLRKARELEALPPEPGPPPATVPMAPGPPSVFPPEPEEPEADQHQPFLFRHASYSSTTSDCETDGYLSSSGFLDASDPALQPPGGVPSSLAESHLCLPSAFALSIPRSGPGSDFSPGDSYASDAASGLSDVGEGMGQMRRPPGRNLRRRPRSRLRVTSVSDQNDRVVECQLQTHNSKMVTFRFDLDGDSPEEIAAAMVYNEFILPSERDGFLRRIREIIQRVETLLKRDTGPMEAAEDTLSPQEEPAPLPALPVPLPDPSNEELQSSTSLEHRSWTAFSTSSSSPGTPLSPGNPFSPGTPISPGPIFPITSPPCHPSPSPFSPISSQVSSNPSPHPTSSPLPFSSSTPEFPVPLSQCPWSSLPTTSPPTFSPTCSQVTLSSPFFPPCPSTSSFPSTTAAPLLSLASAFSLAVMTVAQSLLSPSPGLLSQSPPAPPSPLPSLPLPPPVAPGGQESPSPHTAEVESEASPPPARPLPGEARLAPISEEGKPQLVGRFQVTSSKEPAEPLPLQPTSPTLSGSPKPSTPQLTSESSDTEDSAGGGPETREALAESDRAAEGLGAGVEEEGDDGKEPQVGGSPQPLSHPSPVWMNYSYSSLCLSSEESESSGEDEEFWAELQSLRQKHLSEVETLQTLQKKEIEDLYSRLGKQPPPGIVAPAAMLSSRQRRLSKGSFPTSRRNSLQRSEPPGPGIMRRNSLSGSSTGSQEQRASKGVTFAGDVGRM
Summary of the method: as §1

[3] = target: T3, kinases of the scanMAX Kinase assay panel (Homo sapiens, UniProt Q8TBX8); settings: PIP5K2C; 1 uM
T3 construct: purchased DiscoverX Co. (contract measurement) scanMAX Kinase assay panel
T3 sequence (Q8TBX8 1-421): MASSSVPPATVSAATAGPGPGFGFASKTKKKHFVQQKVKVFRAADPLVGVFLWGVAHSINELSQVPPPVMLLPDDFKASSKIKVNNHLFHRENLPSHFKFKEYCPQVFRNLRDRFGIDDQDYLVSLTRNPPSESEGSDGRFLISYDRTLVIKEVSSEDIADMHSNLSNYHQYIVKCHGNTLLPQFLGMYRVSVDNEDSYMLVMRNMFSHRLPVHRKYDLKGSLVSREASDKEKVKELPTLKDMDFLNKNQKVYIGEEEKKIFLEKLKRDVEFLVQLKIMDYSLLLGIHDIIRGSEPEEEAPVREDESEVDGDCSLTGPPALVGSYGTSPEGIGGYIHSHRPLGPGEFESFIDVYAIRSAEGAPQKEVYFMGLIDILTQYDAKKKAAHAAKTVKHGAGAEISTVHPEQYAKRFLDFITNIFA
Summary of the method: as §1

[4] = target: T4, kinases of the scanMAX Kinase assay panel (Homo sapiens, UniProt P0C264); settings: kinase SgK110; 1 uM in DMSO
T4 construct: purchased DiscoverX Co. (contract measurement) scanMAX Kinase assay panel
T4 sequence (P0C264 1-359): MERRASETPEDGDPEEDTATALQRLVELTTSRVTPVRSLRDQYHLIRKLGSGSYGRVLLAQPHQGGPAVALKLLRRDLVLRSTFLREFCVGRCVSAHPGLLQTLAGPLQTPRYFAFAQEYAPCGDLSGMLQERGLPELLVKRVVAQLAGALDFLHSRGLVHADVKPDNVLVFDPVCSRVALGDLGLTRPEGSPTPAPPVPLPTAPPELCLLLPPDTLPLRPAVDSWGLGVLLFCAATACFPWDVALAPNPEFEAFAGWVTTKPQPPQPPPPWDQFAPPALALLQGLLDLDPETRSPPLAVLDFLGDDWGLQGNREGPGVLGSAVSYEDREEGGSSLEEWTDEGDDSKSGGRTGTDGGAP
Summary of the method: as §1

[5] = target: T5, kinases of the scanMAX Kinase assay panel (Homo sapiens, UniProt O94768); settings: DRAK2; 1 uM
T5 construct: purchased DiscoverX Co. (contract measurement) scanMAX Kinase assay panel
T5 sequence (O94768 1-372): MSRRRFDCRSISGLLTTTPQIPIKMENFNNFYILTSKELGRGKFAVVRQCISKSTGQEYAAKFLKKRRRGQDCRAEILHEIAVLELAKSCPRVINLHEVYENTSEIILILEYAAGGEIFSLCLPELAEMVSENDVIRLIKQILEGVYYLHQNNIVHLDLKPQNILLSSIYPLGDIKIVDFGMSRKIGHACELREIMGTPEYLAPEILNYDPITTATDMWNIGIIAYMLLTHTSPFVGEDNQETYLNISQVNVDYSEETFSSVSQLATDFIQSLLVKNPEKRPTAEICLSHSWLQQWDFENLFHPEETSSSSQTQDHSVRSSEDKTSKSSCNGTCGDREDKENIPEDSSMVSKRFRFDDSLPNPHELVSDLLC
Summary of the method: as §1

[6] = target: T6, kinases of the scanMAX Kinase assay panel (Homo sapiens, UniProt Q7L7X3); settings: kinase TAOK1; 1 uM in DMSO
T6 construct: purchased DiscoverX Co. (contract measurement) scanMAX Kinase assay panel
T6 sequence (Q7L7X3 1-1001): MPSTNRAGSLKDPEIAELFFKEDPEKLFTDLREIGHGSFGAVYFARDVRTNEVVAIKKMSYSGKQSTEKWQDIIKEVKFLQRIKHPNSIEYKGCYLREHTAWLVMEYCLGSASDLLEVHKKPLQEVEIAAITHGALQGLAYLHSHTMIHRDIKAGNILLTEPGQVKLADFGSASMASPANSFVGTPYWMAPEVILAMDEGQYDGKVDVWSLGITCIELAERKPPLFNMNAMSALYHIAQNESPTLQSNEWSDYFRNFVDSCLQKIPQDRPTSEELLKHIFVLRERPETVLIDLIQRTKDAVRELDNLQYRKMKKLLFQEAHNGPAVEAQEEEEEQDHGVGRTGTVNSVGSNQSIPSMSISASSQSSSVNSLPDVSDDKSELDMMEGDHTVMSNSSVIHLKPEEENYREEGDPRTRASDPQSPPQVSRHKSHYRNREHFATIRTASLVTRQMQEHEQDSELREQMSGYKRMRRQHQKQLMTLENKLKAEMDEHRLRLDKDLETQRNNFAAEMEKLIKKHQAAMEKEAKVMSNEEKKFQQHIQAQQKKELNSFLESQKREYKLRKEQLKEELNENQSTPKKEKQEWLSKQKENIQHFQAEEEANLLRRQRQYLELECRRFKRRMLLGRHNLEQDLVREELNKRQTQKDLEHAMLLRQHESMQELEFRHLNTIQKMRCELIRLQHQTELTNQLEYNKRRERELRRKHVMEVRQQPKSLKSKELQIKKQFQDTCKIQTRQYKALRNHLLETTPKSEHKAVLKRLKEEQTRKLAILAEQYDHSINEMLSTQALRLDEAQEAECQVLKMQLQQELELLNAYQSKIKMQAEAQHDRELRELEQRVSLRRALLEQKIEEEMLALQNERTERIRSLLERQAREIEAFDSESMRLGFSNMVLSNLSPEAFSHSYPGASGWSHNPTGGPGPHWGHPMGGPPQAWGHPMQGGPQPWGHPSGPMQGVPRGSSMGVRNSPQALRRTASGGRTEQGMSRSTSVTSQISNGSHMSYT
Summary of the method: as §1

[7] = target: T7, kinases of the scanMAX Kinase assay panel (Homo sapiens, UniProt Q16659); settings: ERK3; 1 uM
T7 construct: purchased DiscoverX Co. (contract measurement) scanMAX Kinase assay panel
T7 sequence (Q16659 whole entry): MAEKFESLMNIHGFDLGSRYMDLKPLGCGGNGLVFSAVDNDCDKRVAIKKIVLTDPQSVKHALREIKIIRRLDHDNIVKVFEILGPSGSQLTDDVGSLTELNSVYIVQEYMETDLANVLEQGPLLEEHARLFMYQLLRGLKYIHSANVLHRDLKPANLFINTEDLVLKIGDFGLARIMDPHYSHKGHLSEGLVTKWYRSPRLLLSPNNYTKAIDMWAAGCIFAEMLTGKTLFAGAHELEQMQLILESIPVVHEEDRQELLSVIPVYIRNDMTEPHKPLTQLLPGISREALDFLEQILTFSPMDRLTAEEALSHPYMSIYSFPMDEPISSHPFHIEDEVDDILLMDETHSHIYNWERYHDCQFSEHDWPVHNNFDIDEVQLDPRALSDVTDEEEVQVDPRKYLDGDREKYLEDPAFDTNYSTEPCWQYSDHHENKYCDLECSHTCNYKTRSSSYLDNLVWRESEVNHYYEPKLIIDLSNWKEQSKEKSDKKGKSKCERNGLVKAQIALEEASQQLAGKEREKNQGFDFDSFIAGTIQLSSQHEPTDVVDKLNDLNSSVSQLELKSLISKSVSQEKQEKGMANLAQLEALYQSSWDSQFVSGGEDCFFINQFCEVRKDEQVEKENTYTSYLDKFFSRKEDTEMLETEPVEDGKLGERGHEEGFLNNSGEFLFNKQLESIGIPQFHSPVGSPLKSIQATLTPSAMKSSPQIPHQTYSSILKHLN
Summary of the method: as §1

[8] = target: T8, kinases of the scanMAX Kinase assay panel (Homo sapiens, UniProt Q9UIK4); settings: DAPK2; 1 uM
T8 construct: purchased DiscoverX Co. (contract measurement) scanMAX Kinase assay panel
T8 sequence (Q9UIK4 whole entry): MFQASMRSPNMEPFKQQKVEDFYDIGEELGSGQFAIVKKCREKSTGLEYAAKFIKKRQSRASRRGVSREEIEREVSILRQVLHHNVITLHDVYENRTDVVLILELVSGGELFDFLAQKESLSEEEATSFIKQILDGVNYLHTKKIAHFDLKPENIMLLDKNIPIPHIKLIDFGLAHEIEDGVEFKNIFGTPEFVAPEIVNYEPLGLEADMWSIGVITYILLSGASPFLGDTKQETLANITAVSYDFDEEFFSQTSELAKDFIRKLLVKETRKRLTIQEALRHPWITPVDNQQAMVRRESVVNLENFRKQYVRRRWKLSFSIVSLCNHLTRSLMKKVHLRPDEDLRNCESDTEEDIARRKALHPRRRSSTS
Summary of the method: as §1

T1 sequence (P36507 whole entry): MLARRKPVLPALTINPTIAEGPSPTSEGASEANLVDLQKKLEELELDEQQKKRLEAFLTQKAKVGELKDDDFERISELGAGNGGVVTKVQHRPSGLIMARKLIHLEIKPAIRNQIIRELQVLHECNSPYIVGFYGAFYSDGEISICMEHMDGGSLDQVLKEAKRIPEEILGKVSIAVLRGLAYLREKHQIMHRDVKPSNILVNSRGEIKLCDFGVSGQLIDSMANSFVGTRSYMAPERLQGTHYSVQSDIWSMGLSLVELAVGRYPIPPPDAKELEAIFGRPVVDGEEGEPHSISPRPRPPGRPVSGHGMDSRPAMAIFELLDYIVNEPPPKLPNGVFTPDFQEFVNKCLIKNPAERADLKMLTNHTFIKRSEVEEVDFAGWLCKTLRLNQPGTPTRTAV

Row | Structure (SMILES) | remaining binding at 1 µM [1] [%] | remaining binding at 1 µM [2] [%] | remaining binding at 1 µM [3] [%] | remaining binding at 1 µM [4] [%] | remaining binding at 1 µM [5] [%] | remaining binding at 1 µM [6] [%] | remaining binding at 1 µM [7] [%] | remaining binding at 1 µM [8] [%]
1 | CC1(Nc2nc(Nc3cnn([C@H]4CCN(C5COC5)C[C@@H]4F)c3Cl)nc3[nH]cc(C#N)c23)CC1 [Example 52, 2-((5-chloro-1-((3S,4S)-3-fluoro-1-(oxetane-3-yl)piperidine-4-yl)-1H-pyrazole-4-yl)amino)((1-methylcyclopropyl)amino)-7H-pyrrolo[2,3-d]pyrimidine-5-carbonitrile] | 0.3 | 100 | 0 | 32 | 1.2 | 6.5 | 54 | 12
2 | CNc1nc(Nc2ccc(C(=O)N3CCOCC3)cc2OC)nc2[nH]cc(C#N)c12 [Example 1, 2-((2-methoxy-4-(morpholine-4-carbonyl)phenyl)amino)-4-(methylamino)-7H-pyrrolo[2,3-d]pyrimidine-5-carbonitrile] | 93 | 81 | 4.5 | 100 | 13 | 73 | 89 | 11
3 | CCNc1nc(Nc2ccc(C(=O)N3CCC(N4CCOCC4)CC3)cc2OC)nc2[nH]cc(C(F)(F)F)c12 [Example 104, (4-((4-(ethylamino)-5-(trifluoromethyl)-7H-pyrrolo[2,3-d]pyrimidine-2-yl)amino)-3-methoxyphenyl)(4-morpholinopiperidine-1-yl)methanone] | 83 | 100 | 77 | 100 | 15 | 85 | 95 | 35
